Assays:
ceramides = experiment: Ceramide levels in MDA cells by flow cytometry; type: cell-based, human; conditions: Sal-B 50 μM, 24 hours
Procedure: Ceramide levels were further analyzed with flow cytometry, according to the method described above, through comparison of Sal-B treated and untreated MDA cells. MDA cells were treated with 50 μM and 100 μM of Sal-B, respectively, for 24 hours and ceramide levels were then analyzed by flow cytometry.
Similarly, immunohistochemistry was carried out, as generally described above, to evaluate the expression of ceramides in MDA tumor xenografts (FIG. 9, panel C). The fixed cells were sequentially incubated with anti-ceramide primary antibody (1:100) for 2 hours and PE-labeled secondary antibody (1:200) for 30 minutes, and the ceramide positive cells were counted (FIG. 9, panel B).

MDA-MB-231 cells [1] = experiment: Cell cycle profile analysis by flow cytometry; type: cell-based, human; conditions: Sal-B 50 μM and 100 μM, 24 hours
Procedure: Cell cycle profile analysis using flow cytometry and Western blot analysis. To understand the effects of Sal-B on the cell cycle of cancer cells, the cell cycle profile was analyzed using flow cytometry. The cells from both cell lines were treated with Sal-B (50 and 100 µM) or doxorubicin (0.1 and 1 μM) for 24 hours and then fixed in chilled 80% ethanol. The fixed cells were incubated in a solution containing 100 μg/mL RNase at 37° C. water bath for 45 minutes. Propidium iodide (final concentration of 50 μg/ml) was then added to the cells and incubated in a 37° C. water bath for another 15 minutes. The analysis was carried out with a FACStar flow cytometer (Becton Dickinson, San Jose, CA). Ten thousand cells per sample were analyzed, cach sample was done in triplicate and the experiment was repeated three times.

Bcl-xL = experiment: Western blot of Bcl-xL expression in MDA and MCF-7 cells; type: cell-based, human; conditions: Sal-B 50 μM and 100 μM, 24 hours
Procedure: (§1) The immunohistochemical results were consistent with those from Western blotting (FIG. 7, panel A). Western blot analysis was used to determine the expression of apoptosis-related proteins Bcl-XL, survivin, caspase-3 and caspase-8 (FIG. 7, panel A). β-actin was used as an internal control for Western blotting. The MCD-7 and MDA cells were treated with Sal-B (50 μM and 100 μM) and doxorubicin (0.1 μM and 1 μM), respectively, for 24 hours. Proteins were extracted from the cells with RIPA lysis buffer (Santa Cruz Biotechnology, Santa Cruz, CA) and the protein concentrations were quantified with Bio-Rad protein quantification kit. Whole-cell proteins were separated on 8% SDS-polyacrylamide gel, transferred to the polyvinylidene difluoride membrane (Bio-Rad), and then probed with the indicated primary antibodies overnight at 4° C. Washed blots were then incubated with horseradish peroxidase-conjugated anti-rabbit, anti-mouse, or anti-goat antibody (Santa Cruz Biotechnology), respectively, for one hour at room temperature. Blots were developed and visualized with ECL detection system (Bio-Rad).

survivin [2] = experiment: Immunohistochemical staining of survivin in MDA tumor xenografts; type: in vivo, athymic nude mice; conditions: Sal-B 80 mg/kg three times per week; versus untreated group
Procedure: Human tumor xenografts in athymic nude mice. […] The animal protocol was approved by the Howard University Animal Care and Use Committee. Four-week-old female athymic nude mice (Nu/Nu) were obtained from Harlan Sprague Dawley (Indianapolis, IN). All mice were provided the Harlan Teklad #2018 Global 18% protein rodent diet and water ad libitum. Mice were housed in temperature-controlled rooms (74±2° F.) with a 12-hour alternating light-dark cycle. MDA cells (3×10^6/50 μL/spot) were subcutaneously injected into the both sides of lower back of mice using a 27-gauge needle. […]
Immunohistochemical staining was performed as described previously (Hao Y, et al., “Enforced expression of miR-101 inhibits prostate cancer cell growth by modulating the COX-2 pathway in vivo,” Cancer Prev Res (Phila), 2011; 4: 1073-1083). […] For the quantification, ten high-magnification (40×) fields were randomly selected from each slide of tumors and the positive cells were counted. The protein expression was expressed as the average number of positive cells per high magnification field.

survivin [3] = experiment: Western blot of survivin expression in MDA and MCF-7 cells; type: cell-based, human; conditions: Sal-B 50 μM and 100 μM, 24 hours
Procedure: as §1

MDA-MB-231 cells [4] = experiment: Luciferase assay (bioluminescent cell viability); type: cell-based, human
Procedure: (§2) Cell lines and culture. MCF-7 and MDA human breast cancer cell lines stably transfected with firefly luciferase gene were purchased from Caliper Life Sciences (Hanover, MD). MCF-7 cells were cultured in DMEM medium (Invitrogen, Carlsbad, CA) and MDA cells were grown in DMEM/F-12 (1:1) medium (Invitrogen). Both media were supplemented with 10% fetal bovine serum (Invitrogen) and antibiotic-antimycotic mixture (100 IU/ml penicillin and 100 μg/ml streptomycin; Cellgro). The cells were maintained at 37° C. in 5% CO2. All experiments were performed when the cells were in the logarithmic phase of growth. Luciferase assay. The MDA cell line and the hormone receptor-positive MCF-7 cell line were utilized to test the effectiveness of Sal-B and doxorubicin on cancer cell viability. Both cell lines had been stably transfected and expressed the firefly luciferase gene. The bioluminescent signal intensity reflects the cell metabolic activity, being highly correlated with the cell viability. Cell viability was evaluated using the sensitive bioluminescent optical imaging. The cells (10,000 per well) were seeded in flat-bottomed 96-well plates in the above-identified medium with 10% fetal bovine serum and allowed to grow overnight. The old medium was then replaced with fresh medium containing different concentrations of Sal-B (50, 100, 150, and 200 μM) or doxorubicin (0.1, 0.2, 0.5, and 1 μM). The cells were further cultured for 24 hours and D-luciferin was added to each well and mixed gently (final concentration of 150 μ/ml). The signal was measured with the Xenogen IVIS 200 imaging system (Caliper Life Sciences, Hopkinton, MA, USA). The system was equipped with a highly sensitive, cooled charge-coupled device (CCD) camera and a light-tight specimen box. Imaging and quantification of signals was controlled by the acquisition and analysis software Living Image 3.0. The bioluminescent signal from the cells in each well was expressed as total flux (photons per second (p/s)). At least five replicates were performed in each experiment, and each experiment was repeated at least three times. The representative data are presented.

MCF-7 cells = experiment: Luciferase assay (bioluminescent cell viability); type: cell-based, human; conditions: Homo sapiens
Procedure: as §2

In the case of O=C(/C=C/c1ccc(O)c2c1[C@H](C(=O)O[C@H](Cc1ccc(O)c(O)c1)C(=O)O)[C@@H](c1ccc(O)c(O)c1)O2)O[C@H](Cc1ccc(O)c(O)c1)C(=O)O [Sal-B, Salvianolic acid B], the “ceramide level by flow cytometry” value (ceramides) is reported as “sufficient to enhance the ceramide level”, the “changes in the cell cycle phases” value (MDA-MB-231 cells [1]) is reported as “no significant changes” and the Bcl-xL protein expression (Bcl-xL; MCF-7 cells) is reported as “downregulated”. The Bcl-xL protein expression (Bcl-xL; MDA cells) was “downregulated”, the “survivin level in tumors” value (survivin [2]) was “decreasing” and the survivin protein expression (survivin [3]; MCF-7 cells) was “downregulated”. The survivin protein expression (survivin [3]; MDA cells) was “downregulated”, the viability at 100 µM (MDA-MB-231 cells [4]; Homo sapiens, MDA-MB-231, 24 h, read-out: cell viability compared with untreated cells) was 69% and the IC50 (MDA-MB-231 cells [4]; Homo sapiens, MDA-MB-231, MDA cells, 24 hours, read-out: half maximal inhibitory concentration (IC50), cell viability) was 125 µM. The “difference in inhibitory effect on cell viability between MDA and MCF-7 cells” value (MDA-MB-231 cells [4]; Sal-B 50-200 μM, 24 hours) was “No significant difference”, the viability at 100 µM (MCF-7 cells; MCF7, 24 h, read-out: cell viability compared with untreated cells) was 65% and the IC50 (MCF-7 cells; MCF7, MCF-7 cells, 24 hours, read-out: half maximal inhibitory concentration (IC50), cell viability) was 120 µM.

Source: patent publication US12383527B2, “Methods for treating triple negative breast cancer using salvianolic acid B” (HOWARD UNIVERSITY, priority 2018, dated 2025)
